Read-outs that look alike come from different tables or passages of the source.

Ki, IC50 and Emax data for 14 molecules are collected here from US9365534B2, “Arylated camphenes, processes for their preparation and uses thereof” (Yissum Research Development Company of the Hebrew …, priority 2009, dated 2016).

The target of test [1] is T1, human CB1 receptor (Homo sapiens (Human), UniProt P21554). Kind of test: Membrane competition binding assay with [3H]-CP 55,940, CHO-CB1 membranes. As to conditions: read-out: Competition Binding Assay CB1 Receptor Ki. The source says: (§1) The cDNA clones for human HA-tagged CB1 and CB2 receptors were obtained from the Missouri S&T cDNA Resource Center (www.cdna.org) in cloning vector pcDNA3.1+. The vector containing the human CB2 receptor was transfected directly into CHO-KI cells obtained from ATCC. The HA-tagged human CB1 receptor sequence was subcloned into the pef4-V5-HisA vector with Kpn1 and Pme1 restriction enzymes and subsequently transfected into CHO-K1 cells. Cells were clonally isolated by limited dilution and screened by immunocytochemistry for expression of the HA tag.
T1 sequence (P21554 whole entry): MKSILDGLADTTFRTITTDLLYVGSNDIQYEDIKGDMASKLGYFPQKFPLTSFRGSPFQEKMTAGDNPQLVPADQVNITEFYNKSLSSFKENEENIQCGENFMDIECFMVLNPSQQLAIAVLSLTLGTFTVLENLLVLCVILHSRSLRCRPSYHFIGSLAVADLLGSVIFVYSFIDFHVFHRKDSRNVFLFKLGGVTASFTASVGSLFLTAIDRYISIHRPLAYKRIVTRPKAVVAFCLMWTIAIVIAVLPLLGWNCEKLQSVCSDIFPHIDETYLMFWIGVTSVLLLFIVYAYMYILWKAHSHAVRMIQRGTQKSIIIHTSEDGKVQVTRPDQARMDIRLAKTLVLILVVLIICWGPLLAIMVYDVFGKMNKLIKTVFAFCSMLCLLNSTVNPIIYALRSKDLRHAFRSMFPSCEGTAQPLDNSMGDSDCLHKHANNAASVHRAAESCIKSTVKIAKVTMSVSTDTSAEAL
(§2) Cells were maintained in DMEM/F12 media supplemented with 10% fetal bovine serum (FBS), 100 units/ml penicillin and 100 μg/ml streptomycin and 2 mM L-glutamine. Transfected cell lines were maintained with additional 150 ug/ml zeocin for pEF HA-CB1 transfected cells and 500 ug/ml G-418 for pcDNA HA-CB2 transfected cells (all reagents obtained from Invitrogen).
(§3) Cells were grown to confluence and harvested in ice cold phosphate buffered saline with 5 mM EDTA. Cells were spun at 200×g for 10 min and frozen at −80° C. until required. Cell pellets were thawed with cold 0.32 M sucrose and homogenised with a glass homogeniser. The homogenate was spun at 1000×g for 10 min at 4° C. and the supernatant spun in a Sorvall ultracentrifuge for 30 min at 100,000×g. The pellet was then washed in ice cold water and re-spun twice more. The final pellet was resuspended in 50 mM Tris pH 7.5, 0.5 mM EDTA. Protein concentration was determined using the Dc protein assay kit (BioRad, Hercules, Calif., USA).
(§4) Membranes (5-10 μg) were incubated with radioligand and a range of concentrations of test compounds in binding buffer (50 mM Tris pH 7.4, 5 mM MgCl2, 1 mM EDTA) with 0.5% (w/v) bovine serum albumin (BSA) (ICP Bio, New Zealand), at 30° C. for 60 min. Stock solutions of putative cannabinoid ligands were prepared in dimethyl sulfoxide to a concentration of 10 mM. Six different final concentrations of compounds were used ranging from 50 μM to 0.1 nM. […] Assays were terminated by addition of 2 ml ice cold binding buffer and filtration through GF/C filters (Whatman) pre-soaked in cold binding buffer, followed by two washes in the same buffer.
(§5) Radioactivity was determined by incubation of filters with Irgasafe scintillation fluid (PerkinElmer) and scintillation counting in a Wallac Trilux using Microbeta Trilux software. Data was analysed using the Prism 4.02 programme (GraphPad Software, San Deigo, Calif., USA).
(§6) All data was analyzed using Prism 4.02. For binding data the Ki was determined from IC50 values derived from competition binding data fitted with one site competition non-linear regression analysis by Prism 4.02 using the Kd values reported above.

Test [2] has as its target T2, human CB2 receptor (Homo sapiens (Human), UniProt P34972). Kind of test: Membrane competition binding assay with [3H]-CP 55,940, CHO-CB2 membranes.
Description: as §1, §2, §3, §4, §5, §6

For test [3], the target named is T2, human CB2 receptor. The test is described as follows: cell-based.
Description: as §1, §2
(§7) Cells were seeded at a density of 10,000 cells per well in poly-L-lysine treated 96-well culture plates (BD Biosciences). The following day wells were incubated with 40 μl DMEM/F12 containing 0.5% (w/v) BSA and 0.5 mM 3-isobutyl-1-methylxanthine (Sigma-Aldrich) for 30 minutes prior to 15 min stimulation with 50 μM forskolin (Tocris Cookson) and varying concentrations of indicated compounds at 37° C., 5% CO2. Assays were stopped by removal of media and addition of 100% ice cold ethanol. Plates were then frozen for a minimum of two hours before complete evaporation of ethanol. The well contents were then reconstituted in 50 μl cAMP assay buffer (20 mM HEPES pH 7.5 and 5 mM EDTA). Half of the reconstituted sample was transferred to round bottom 96-well plates (Greiner Bio-One GmbH) with 50 μl 0.01% w/v PKA (cAMP dependent protein kinase (Sigma-Aldrich) in 1 mM Na citrate pH 6.5 with 2 mM dithiothreitol) and 25 μl [^3H]-cAMP (at 22 nM in cAMP assay buffer) (GE Healthcare, Life Sciences). This was allowed to equilibrate for 3-18 hours. Following this a charcoal slurry (5% (w/v) activated charcoal and 0.2% (w/v) BSA in cAMP assay buffer) was added to the samples and the plates centrifuged at 3000×g, 4° C. for 5 min. Radioactive counts within the supernatant were then determined as described for competition binding assays.
(§8) pIC50 values were determined from cAMP assays by fitting a sigmoidal concentration response curve using Prism 4.02.

Test [4] addresses T1, human CB1 receptor. Kind of test: cell-based. The note with it: for IC50: whole cells expressing CB1, 50 μM forskolin, read-out: cAMP Assay CB1 Receptor IC50.
Description: as §1, §2, §7, §8

[5] abbreviates: CHO-CB2 cellular membranes, 2.5 nM [3H]-CP 55,940.
Where [6] appears, read: whole cells expressing CB2, 50 μM forskolin; read-out: cAMP Assay CB2 Receptor IC50.
The mark [7] stands for this setting: CHO-CB1 cellular membranes, 2.5 nM [3H]-CP 55,940.
Setting [8] is: CHO, read-out: cAMP Assay CB2 Receptor Emax.
Where [9] appears, read: read-out: cAMP Assay CB2 Receptor IC50.

Consider `CCCCCCC(C)(C)c1cc(O)c2c(c1)OC(C)(C)[C@@H]1CC=C(CO)C[C@@H]21` [HU-210, 1,1-Dimethylheptyl-11-hydroxy-tetrahydrocannabinol, reference compound], for which the Ki in test [1] was 0.00294 µM.
With `CCCCCCC(C)(C)c1cc(OC)c(C2=C[C@H]3CC[C@]2(C)C3(C)C)c(OC)c1` [HU-907, (1R,4R)-2-(2,6-dimethoxy-4-(2-methyloctan-2-yl)phenyl)-1,7,7-trimethylbicyclo[2.2.1]hept-2-ene], the figures for the Ki in test [2] (setting [5]) and in test [1] (setting [7]) were 2.51 µM and greater than 50 µM, respectively. The concentration for half-maximal inhibition (IC50) in test [3] (setting [6]) and in test [4] was greater than 50 µM in each case.
For the molecule `CCCCCCC(C)(C)c1cc(OC)c(C2=C[C@@H]3CC[C@@]2(C)C3(C)C)c(OC)c1` [HU-908, (1S,4S)-2-(2,6-dimethoxy-4-(2-methyloctan-2-yl)phenyl)-1,7,7-trimethylbicyclo[2.2.1]hept-2-ene], the Ki in test [2] (setting [5]) and in test [1] (setting [7]) was greater than 50 µM throughout. Besides, the IC50 in test [3] (setting [6]) and in test [4] was greater than 50 µM each time.
For `CCCCCCC(C)(C)c1cc(OC)c(C2=C[C@H]3CC[C@]2(C(=O)OC)C3(C)C)c(OC)c1` [HU-912, (1S,4R)-methyl-2-(2,6-dimethoxy-4-(2-methyloctan-2-yl)phenyl)-7,7-dimethylbicyclo[2.2.1]hept-2-ene-1-carboxylate], the Ki in test [2] (setting [5]) was 0.0771 µM; in test [1] (setting [7]), greater than 10 µM. In addition, the Emax in test [3] (CHO; read-out: cAMP Assay CB2 Receptor Emax) was determined as 107 ± 4%; in test [4] (CHO, percentage of maximal response of HU-210, mean ± SEM, read-out: cAMP Assay CB1 Receptor Emax), 112 ± 8%. The IC50 stood at 0.239 µM in test [3] (setting [6]) and 3.37 µM in test [4].
For `CCCCCCC(C)(C)c1cc(OC)c(C2=C[C@]3(C)CC[C@H]2C3(C)C)c(OC)c1` [HU-917, (1S,4S)-3-(2,6-dimethoxy-4-(2-methyloctan-2-yl)phenyl)-1,7,7-trimethylbicyclo[2.2.1]hept-2-ene], the Ki in test [2] (setting [5]) and in test [1] (setting [7]) was greater than 50 µM each time. Besides, the IC50 in test [3] (setting [6]) and in test [4] was greater than 50 µM each time.
On to `CCCCCCC(C)(C)c1cc(OC)c(C2=C[C@@]3(C)CC[C@@H]2C3(C)C)c(OC)c1` [HU-918, (1R,4R)-3-(2,6-dimethoxy-4-(2-methyloctan-2-yl)phenyl)-1,7,7-trimethylbicyclo[2.2.1]hept-2-ene], for which the Ki in test [2] (setting [5]) and in test [1] (setting [7]) was greater than 50 µM throughout. Further, the half-inhibitory concentration (IC50) in test [3] (setting [6]) and in test [4] was greater than 50 µM throughout.
Turning to `CCCCCc1cc(OC)c(C2C(=O)[C@]3(C)CC[C@H]2C3(C)C)c(OC)c1` (stereo partly drawn) [HU-936, (1R,4R)-3-(2,6-dimethoxy-4-pentylphenyl)-1,7,7-trimethylbicyclo[2.2.1]heptan-2-one], the Ki was 1.72 µM in test [2] (setting [5]) and greater than 50 µM in test [1] (setting [7]). Also, the IC50 in test [3] (setting [6]) and in test [4] was greater than 50 µM each time.
`CCCCCc1cc(OC)c(C2C(O)[C@]3(C)CC[C@H]2C3(C)C)c(OC)c1` (stereo partly drawn) [HU-938, (1R,4R)-3-(2,6-dimethoxy-4-pentylphenyl)-1,7,7-trimethylbicyclo[2.2.1]heptan-2-ol]: the Ki was 7.91 µM in test [2] (setting [5]) and greater than 50 µM in test [1] (setting [7]). Moreover, the IC50 in test [3] (setting [6]) and in test [4] was greater than 50 µM in each case.
As for `CCCCCc1cc(OC)c(C2=C[C@@H]3CC[C@@]2(CO)C3(C)C)c(OC)c1` [HU-969, (1R,4S)-(2-(2,6-dimethoxy-4-pentylphenyl)-7,7-dimethylbicyclo[2.2.1]hept-2-en-1-yl)methanol], the Ki in test [2] was 6.46 µM; in test [1] (setting [7]) it was greater than 50 µM. Also, the IC50 in test [3] and in test [4] was greater than 50 µM throughout.
`CCCCCc1cc(OC)c(C2=C[C@H]3CC[C@]2(CO)C3(C)C)c(OC)c1` [HU-970, (1S,4R)-(2-(2,6-dimethoxy-4-pentylphenyl)-7,7-dimethylbicyclo[2.2.1]hept-2-en-1-yl)methanol]: the values for the Ki in test [2] and in test [1] (setting [7]) were 1.27 µM and greater than 50 µM, respectively. Also, the Emax in test [3] (setting [8]) is 38 ± 2%. The IC50 is 1.15 µM in test [3] (setting [9]) and greater than 50 µM in test [4].
Regarding `CCCCCc1cc(OC)c(C2=C[C@@H]3CC[C@@]2(C(=O)OC)C3(C)C)c(OC)c1` [HU-971, (1R,4S)-methyl-2-(2,6-dimethoxy-4-pentylphenyl)-7,7-dimethylbicyclo[2.2.1]hept-2-ene-1-carboxylate], the Ki was 0.704 µM in test [2] and greater than 50 µM in test [1] (setting [7]). The Emax in test [3] (setting [8]) was 31 ± 4%. Further, the IC50 was 1.53 µM in test [3] (setting [9]) and greater than 50 µM in test [4].
For the molecule `CCCCCc1cc(OC)c(C2=C[C@H]3CC[C@]2(C(=O)OC)C3(C)C)c(OC)c1` [HU-972, (1S,4R)-methyl-2-(2,6-dimethoxy-4-pentylphenyl)-7,7-dimethylbicyclo[2.2.1]hept-2-ene-1-carboxylate], the Ki is 0.168 µM in test [2] and greater than 50 µM in test [1] (setting [7]). Moreover, the Emax in test [3] (setting [8]) is 48 ± 5%. Moreover, the IC50 in test [3] (setting [9]) is 0.313 µM; in test [4] it was greater than 50 µM.
On to `CCCCCc1cc(OC)c(C2=C[C@@H]3CC[C@@]2(C(=O)O)C3(C)C)c(OC)c1` [HU-973, (1R,4S)-2-(2,6-dimethoxy-4-pentylphenyl)-7,7-dimethylbicyclo[2.2.1]hept-2-ene-1-carboxylic acid], for which the Ki in test [2] is 1.15 µM; in test [1] (setting [7]), greater than 50 µM. Moreover, the Emax in test [3] (setting [8]) amounted to 40 ± 6%. The figures for the IC50 in test [3] (setting [9]) and in test [4] were 2.09 µM and greater than 50 µM, respectively.
Regarding `CCCCCc1cc(OC)c(C2=C[C@H]3CC[C@]2(C(=O)O)C3(C)C)c(OC)c1` [HU-974, (1S,4R)-2-(2,6-dimethoxy-4-pentylphenyl)-7,7-dimethylbicyclo[2.2.1]hept-2-ene-1-carboxylic acid], the figures for the Ki in test [2] and in test [1] (setting [7]) were greater than 10 µM and greater than 50 µM, respectively. Further, the IC50 in test [3] and in test [4] was greater than 50 µM in each case.

The Ki is a measure of affinity in units of concentration, obtained from inhibition or displacement. The term IC50 denotes the concentration that gives 50% inhibition. Usually Emax stands for the size of the effect at its maximum, as opposed to the concentration needed.
